For orientation: Kd means the equilibrium constant for the complex coming apart. A low value points to tighter binding. The IC50 is the concentration that inhibits the measured activity by half. Read a high IC50 as a need for much substance.

Values joined by “and” are separate entries in the source; they are usually repeats but may differ in a detail not shown here. Equal values may be shown once. “Also recorded” adds a separate entry of the source.

The target of assay [1] is T1, IRE1α (Homo sapiens, UniProt O75460).
T1 construct: Human IRE1α kinase and RNase domain (residues 547–977) was subcloned into pLIB plasmid; His tag (with TEV cleavage site) (N, cleaved yes); made in house; host or cells: Sf9 insect cells, baculovirus (Bac-to-Bac)
T1 sequence (O75460 547-977): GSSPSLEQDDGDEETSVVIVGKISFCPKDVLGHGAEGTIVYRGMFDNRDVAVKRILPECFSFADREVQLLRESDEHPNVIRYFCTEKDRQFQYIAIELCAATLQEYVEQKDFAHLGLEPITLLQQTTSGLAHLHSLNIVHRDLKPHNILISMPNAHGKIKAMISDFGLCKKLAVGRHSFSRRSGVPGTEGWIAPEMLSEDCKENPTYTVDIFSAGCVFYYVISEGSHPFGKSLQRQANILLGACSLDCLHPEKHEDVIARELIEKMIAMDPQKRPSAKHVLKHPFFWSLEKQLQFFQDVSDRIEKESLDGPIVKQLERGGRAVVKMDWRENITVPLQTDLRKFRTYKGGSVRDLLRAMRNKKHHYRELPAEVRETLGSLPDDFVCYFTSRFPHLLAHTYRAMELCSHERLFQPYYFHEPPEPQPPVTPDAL
Put plainly: Michaelis–Menten kinetic analysis with XBP1 RNA substrate. Format: biochemical. As for the experimental part:
I/s (fluorescence intensity/second), 7.98 FL. I/s, 2.33 FL. I/s and 0.9 FL. I/s, respectively.
The dual-labeled RNA substrate with a FAM at 5’ and the BHQ-1 at 3’ containing the XBP1 sequence (5′FAM-[…]-3′BHQ1) was purchased from Integrated DNA Technologies (IDT). The FRET-based IRE1α RNase activity assay was carried out in reaction buffer containing 20 mM HEPES pH 7.5, 50 mM KOAc, 1 mM MgOAc2, 1 mM DTT, 0.05% v/v TritonX-100, at a total reaction volume of 20 μL in a 384-well black plate (4514, Corning). […] […] The indicated compound and IRE1α protein were incubated for 30 min at room temperature before the substrate was added to the reaction. The plate was then kinetically read over one hour at room temperature using a TECAN Spark plate reader. The measurement was carried out using the fluorescence top reading mode at the excitation wavelength of 485 nm and the emission wavelength of 535 nm with a 10 nm excitation and emission bandwidth. The linear part of the reaction curve was adopted and fitted with sample linear regression to obtain the slope, and the slope was adopted to reflect the reaction rate. The inhibition % was calculated by using the equation: inhibition% = 100 × (slope of DMSO control – slope of the sample)/(slope of DMSO control – slope of blank control), DMSO control: DMSO with protein and RNA substrate; Blank control: DMSO with RNA substrate. The IC50 values were calculated using the concentration-response model in GraphPad Prism 9.

Assay [2] deals with T2, wild-type full-length IRE1α in A549 cell lysate (Homo sapiens, UniProt O75460).
T2 construct: endogenous in cells; host or cells: A549 cells
T2 sequence (O75460 19-977): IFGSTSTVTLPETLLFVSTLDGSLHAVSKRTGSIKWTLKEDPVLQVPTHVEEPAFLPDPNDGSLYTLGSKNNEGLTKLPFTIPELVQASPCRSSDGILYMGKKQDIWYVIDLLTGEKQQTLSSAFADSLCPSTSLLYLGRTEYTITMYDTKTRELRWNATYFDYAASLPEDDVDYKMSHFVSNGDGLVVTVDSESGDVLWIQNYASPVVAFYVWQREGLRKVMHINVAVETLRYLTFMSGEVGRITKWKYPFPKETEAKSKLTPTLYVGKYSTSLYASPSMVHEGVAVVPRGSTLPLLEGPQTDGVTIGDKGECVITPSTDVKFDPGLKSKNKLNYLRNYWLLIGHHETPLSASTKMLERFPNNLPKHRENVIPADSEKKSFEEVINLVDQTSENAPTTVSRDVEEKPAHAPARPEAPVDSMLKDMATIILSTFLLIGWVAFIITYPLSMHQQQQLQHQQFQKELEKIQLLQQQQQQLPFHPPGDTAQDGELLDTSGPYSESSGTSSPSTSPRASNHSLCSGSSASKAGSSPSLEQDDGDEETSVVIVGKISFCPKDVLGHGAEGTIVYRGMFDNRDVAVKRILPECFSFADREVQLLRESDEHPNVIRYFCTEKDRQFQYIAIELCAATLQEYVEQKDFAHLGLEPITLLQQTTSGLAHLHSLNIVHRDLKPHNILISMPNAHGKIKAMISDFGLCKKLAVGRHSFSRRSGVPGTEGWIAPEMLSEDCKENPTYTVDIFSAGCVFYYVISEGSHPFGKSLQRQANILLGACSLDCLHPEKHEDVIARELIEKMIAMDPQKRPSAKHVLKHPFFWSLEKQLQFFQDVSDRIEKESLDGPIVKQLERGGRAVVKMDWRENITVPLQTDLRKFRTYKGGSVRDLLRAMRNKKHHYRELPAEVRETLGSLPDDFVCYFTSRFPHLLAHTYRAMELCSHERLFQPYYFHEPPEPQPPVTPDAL
Description: Thermal stability assay in A549 cell lysate. Format: binding. As for the experimental part: A549 cells were harvested and seeded into 100 mm standard cell culture dishes at 80% confluency and cultured overnight. For the IA107 experiment, cells were gently washed with pre-cooled DPBS (Gibco,14190169) and lysed in RIPA buffer (Sigma, R0278) supplemented with phosphatase inhibitor (Roch, 4906845001) and 1× protease inhibitor cocktail (Sigma, P8340) for 30 min on ice. Cell lysates were centrifuged at 18,000 × g for 30 min at 4 °C and the supernatants were collected. The lysates were collected together and then aliquoted into 550 μL, the aliquots were incubated with different concentrations of IA107 with a final concentration of 0.1% DMSO for 30 min at room temperature. After the incubation, the sample was aliquoted into 10 PCR tubes, with 50 μL of lysate per tube and further heated at the indicated temperatures using a PCR cycler (25 °C for 1 min; indicated temperatures for 3 min; 16 °C, hold). After heating, the lysates were centrifuged at 18,000 × g for 30 min at 4 °C and the supernatants were collected and mixed with 4x protein loading buffer (Invitrogen, 2463559), heated at 95 °C for 10 min and separated by 4–20% MP stain-free gels (Bio-Rad, 4568095) then transferred to 0.45 μm PVDF membranes (Bio-Rad, 1704274) using the Trans-Blot Turbo Transfer System with the preprogrammed standard SD protocol (Bio-Rad). […]

Assay [3] has as its target T3, dephosphorylated IRE1α (Homo sapiens, UniProt O75460).
T3 construct: Human IRE1α kinase and RNase domain (residues 547–977) was subcloned into pLIB plasmid; His tag (with TEV cleavage site) (N, cleaved yes); made in house; host or cells: Sf9 insect cells, baculovirus (Bac-to-Bac)
Put plainly: Microscale thermophoresis (MST), IRE1α. Format: binding. As for the experimental part: Dephosphorylated IRE1α protein and phosphorylated IRE1α protein were labeled and purified using Protein Labeling Kit RED-NHS 2nd Generation (NanoTemper, MO-L011), following the manufacturer’s protocol. The labeling buffer contained 50 mM HEPES, pH 7.5, 200 mM NaCl, 2% glycerol, 0.5 mM TCEP, 0.05% tween20. MST experiments were performed using the Monolith Nt.115 instrument (NanoTemper), and binding experiments were conducted according to the instrument’s instructions. Compounds were serially diluted 2-fold and incubated with labeled IRE1α protein at a final concentration of 20 nM. The highest compound concentration measured was 250 μM with a final DMSO concentration of 2.5%. Measurements were carried out using the red detector with 60% excitation power. Data were analyzed using the manufacturer’s software, and results from three individual measurements were merged for analysis.
A general note: In MST a laser heats a spot of the sample, and binding alters the fluorescence response.

Assay [4] concerns IRE1α transcription level in HCT 116 cells. Description: RT-qPCR of IRE1α transcription level, HCT 116. To be noted: HCT 116 cells. The format is cell-based, human. As for the experimental part:
(§1) A549 cells, HCT 116 cells, and HT-29 cells were collected and seeded in 6-well plates at a density of 5 × 10^5 cells per well and cultured overnight to attach, then treated with compound or DMSO for 2 h, then 0.5 μg/mL final concentration of tunicamycin (Tm, MP Biomedi, 0215002805) were added to induce the ER stress for 2 h. After treatment, total RNA was purified using an RNeasy mini kit (Qiagen, 74106). 500 ng of total RNA was used for reverse transcription using the High-Capacity cDNA Reverse Transcription Kits (Thermo Fisher, 4368814). cDNA was diluted 1: 5 using RNase-free water, and 1 μL CDNA was used for each qPCR reaction. The qPCR was performed using PowerUp™ SYBR™ Green Master Mix (Thermo Fisher, A25742) with 10 µL reaction volume using Bio-Rad CFX96 Real-Time PCR Detection System following the standard cycling mode (primer Tm ≥ 60 °C) on the manufacturer’s protocol. Data was analyzed using the 2^- ΔΔCt method. The primers used are listed in Supplementary Table S3. The inhibition % was calculated by using the equation: inhibition% = 100× (normalized Tm control - normalized of the sample)/(normalized Tm control - normalized DMSO control). Tm control: Cells treated with tunicamycin; DMSO control: Cells treated with DMSO only.
For orientation: Quantitative PCR measures a nucleic acid by following its amplification.

Assay [5] relates to XBP1 mRNA splicing in HT-29 cells. Put plainly: RT-qPCR of ER stress-induced XBP1 mRNA splicing, HT-29. Format: cell-based, human. To be noted: HT-29 cells. As to the method: as §1

T3 sequence (O75460 547-977): as the sequence (O75460 547-977) above

`Cc1c(CCC(=O)O)c2cc(Br)ccc2n1C(=O)c1ccccc1` [IA107]: the “inhibition mechanism towards the XBP1 mRNA substrate” value in assay [1] was “non-competitive”. In addition, the results for the Vmax in assay [1] (0.01 μM IA107), in assay [1] (0.1 μM IA107) and in assay [1] (1 μM IA107) were 7.98 FL. I/s, 2.33 FL. I/s and 0.9 FL. I/s, respectively. In addition, the “IRE1a Velocity” value is 7.329 FL.I/s and 6.249 FL.I/s in assay [1] (RNA 5000 nM, IA107 0.01 μM); 1.807 FL.I/s and 2.323 FL.I/s in assay [1] (RNA 5000 nM, IA107 0.1 μM); 0.681 FL.I/s and 0.661 FL.I/s in assay [1] (RNA 5000 nM, IA107 1 μM); 7.224 FL.I/s and 6.354 FL.I/s in assay [1] (RNA 10000 nM, IA107 0.01 μM); 1.848 FL.I/s and 1.988 FL.I/s in assay [1] (RNA 10000 nM, IA107 0.1 μM); 0.902 FL.I/s and 0.839 FL.I/s in assay [1] (RNA 10000 nM, IA107 1 μM). Also, the “thermal stabilization of full-length IRE1α in cell lysate” value in assay [2] was “concentration-dependently stabilized; also recorded: stabilized full-length IRE1α in cell lysate; also recorded: stabilized the full-length IRE1α in a concentration-dependent manner”. The compound further gave a Kd in assay [3] of 1360 nM.
Regarding `CCOC(=O)CCc1c(C)n(C(=O)c2ccccc2)c2ccc(Br)cc12` [IAPD1], the “effect on IRE1α transcription level” value in assay [4] was “did not influence; also recorded: no obvious impact”. Further, in assay [5], the “inhibition of ER stress-induced XBP1 mRNA splicing” value is “inhibited”. Moreover, half-maximal inhibition in assay [5] (Homo sapiens) (IC50) was put at 160 nM.
